Experimental data published in patent US20160158200A1, “Combinations of Hepatitis C Virus Inhibitors” (priority 2013, published 2016).

Test system: HCV genotype-1a variant with glutamine 30 changed to glutamate in the NS5A protein
Assay type: cell-based
Conditions: test compound titrated with BMS-790052 fixed at 200 nM; genotype 1a Q30E replicon
In short: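 Synergy was assessed by combining several fixed amounts of an NS5A-targeting compound with a titration of the second compound of interest.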

| SMILES | Fold-Synergistic 1a (Q30E) [fold] |
| --- | --- |
| CC(C)(C)C(=O)N[C@H](c1nc(-c2ccc(-c3cnc(-c4c[nH]c([C@@H](NC(=O)C(C)(C)C)C(C)(C)C)n4)cn3)cc2)c[nH]1)C(C)(C)C.O=C(O)C(F)(F)F [Compound N-105] | >100 |
| CC(C)(C(=O)N[C@H](c1ncc(-c2ccc(-c3ccc(-c4cnc([C@@H](NC(=O)C(C)(C)C5=CCCCC5)C(C)(C)C)[nH]4)cc3)cc2)[nH]1)C(C)(C)C)C1=CCCCC1 [Compound B86] | >100 |
| CC(C)(Oc1ccccc1F)C(=O)N[C@H](c1nc(-c2ccc(-c3ccc(-c4c[nH]c([C@@H](NC(=O)C(C)(C)Oc5ccccc5F)C(C)(C)C)n4)cc3)cc2)c[nH]1)C(C)(C)C [Compound Y-4] | >100 |
| CC(C)(C(=O)N[C@H](c1nc(-c2ccc(-c3ccc(-c4cnc([C@@H](NC(=O)C(C)(C)C5CCCO5)C(C)(C)C)[nH]4)cc3)cc2)c[nH]1)C(C)(C)C)C1CCCO1 (single isomer, unassigned) [Compound B-171] | >100 |
| CC(C)C(NC(=O)C1C2CC2CN1C(=O)OC(C)(C)C)c1nc(-c2ccc(-c3ccc(-c4c[nH]c(C(NC(=O)C5C6CC6CN5C(=O)OC(C)(C)C)C(C)C)n4)cc3)cc2)c[nH]1 (stereo not drawn) [Compound W-74] | >100 |
| CC(C)(C)[C@H](NC(=O)C1CCCOC1)c1nc(-c2ccc(-c3ccc(-c4c[nH]c([C@@H](NC(=O)C5CCCOC5)C(C)(C)C)n4)cc3)cc2)c[nH]1 (stereo partly drawn) [Compound W-131] | >100 |
| O=C(N[C@H]1CCC[C@H]1c1nc(-c2ccc(-c3ccc(-c4c[nH]c([C@@H]5CCC[C@@H]5NC(=O)C5CCC(F)(F)CC5)n4)cc3)cc2)c[nH]1)C1CCC(F)(F)CC1 [Compound L-106] | >100 |
| CC(C)[C@H](NC(=O)N1CCOCC1)c1ncc(-c2ccc(-c3ccc(-c4cnc([C@@H](NC(=O)N5CCOCC5)C(C)C)[nH]4)cc3)cc2)[nH]1 [Compound S-231] | >10 |
| CC(C)(C)[C@H](NC(=O)C(=O)N1CCCCCC1)c1nc(-c2ccc(-c3ccc(-c4c[nH]c([C@@H](NC(=O)C(=O)N5CCCCCC5)C(C)(C)C)n4)cc3)cc2)c[nH]1 [Compound W-32] | >100 |
| CC(C)[C@H](NC(=O)C1(C)CCCCC1)c1ncc(-c2ccc3c(c2)Cc2cc(-c4cnc([C@@H](NC(=O)C5(C)CCCCC5)C(C)C)[nH]4)ccc2-3)[nH]1.O=C(O)C(F)(F)F [Compound N-69] | >100 |
| CC(C)(C)[C@H](NC(=O)C(C)(C)S(C)(=O)=O)c1nc(-c2ccc(-c3ccc(-c4cnc([C@@H](NC(=O)C(C)(C)S(C)(=O)=O)C(C)(C)C)[nH]4)cc3)cc2)c[nH]1 [Compound B-180] | >100 |
| CC(C)(C)[C@H](NC(=O)C(C)(C)C1(O)CCC(F)(F)CC1)c1ncc(C#Cc2ccc3cc(-c4cnc([C@@H](NC(=O)C(C)(C)C5(O)CCC(F)(F)CC5)C(C)(C)C)[nH]4)ccc3c2)[nH]1 [Compound B5A] | >100 |
| CC(C)[C@H](NC(=O)C1(C(F)(F)F)CCCC1)c1ncc(-c2ccc(-c3ccc(-c4cnc([C@@H](NC(=O)C5(C(F)(F)F)CCCC5)C(C)C)[nH]4)cc3)cc2)[nH]1 [Compound P-80] | >100 |
| CC(C)(F)C(NC(=O)C1CCC(F)(F)CC1)c1nc(-c2ccc(-c3ccc(-c4c[nH]c(C(NC(=O)C5CCC(F)(F)CC5)C(C)(C)F)n4)cc3)cc2)c[nH]1 (single isomer, unassigned) [Compound N-106A] | >100 |
| CC(C)(C)C(NC(=O)C1(NC(=O)C2CC2(F)F)CCCCC1)c1nc(-c2ccc(-c3ccc(-c4c[nH]c(C(NC(=O)C5(NC(=O)C6CC6(F)F)CCCCC5)C(C)(C)C)n4)cc3)cc2)c[nH]1 (mixture of isomers) [Compound W-277] | >100 |
| CC(C)(C)[C@H](NC(=O)[C@@]1(N)C[C@@H]1c1ccccc1)c1nc(-c2ccc(-c3ccc(-c4c[nH]c([C@@H](NC(=O)[C@@]5(N)C[C@@H]5c5ccccc5)C(C)(C)C)n4)cc3)cc2)c[nH]1 [Compound W-41] | >100 |
| C[C@H]1C[C@@H](c2nc(-c3ccc(-c4ccc(-c5c[nH]c([C@@H]6C[C@H](C)CN6C(=O)C(=O)N6CCC(F)(F)CC6)n5)cc4)cc3)c[nH]2)N(C(=O)C(=O)N2CCC(F)(F)CC2)C1 [Compound L-143] | >100 |
| CC(C)(C(=O)N[C@H](c1nc(-c2ccc(-c3ccc(-c4c[nH]c([C@@H](NC(=O)C(C)(C)C(O)c5ccccc5F)C(C)(C)C)n4)cc3)cc2)c[nH]1)C(C)(C)C)C(O)c1ccccc1F (single isomer, unassigned) [Compound N-124B] | >100 |
| CC(C)(C)OC(=O)N1CC2CC2C1C(=O)NC(c1nc(-c2ccc(-c3ccc(-c4c[nH]c(C(NC(=O)C5C6CC6CN5C(=O)OC(C)(C)C)C(C)(C)C)n4)cc3)cc2)c[nH]1)C(C)(C)C (stereo not drawn) [Compound W-79] | >100 |
| CC(C)(C(=O)N[C@H](c1nc(-c2ccc(-c3ccc(-c4c[nH]c([C@@H](NC(=O)C(C)(C)C(O)c5ccccc5)C(C)(C)C)n4)cc3)cc2)c[nH]1)C(C)(C)C)C(O)c1ccccc1 (single isomer, unassigned) [Compound N-127A] | >100 |
| Cc1nn(-c2ccccc2)nc1C(=O)N[C@H](c1ncc(-c2ccc(-c3ccc(-c4cnc([C@@H](NC(=O)c5nn(-c6ccccc6)nc5C)C(C)C)[nH]4)cc3)cc2)[nH]1)C(C)C [Compound S-95] | >10 |
| Cc1noc(C)c1C(=O)N[C@H](c1ncc(-c2ccc(-c3ccc(-c4cnc([C@@H](NC(=O)c5c(C)noc5C)C(C)C)[nH]4)cc3)cc2)[nH]1)C(C)C [Compound S-96] | >100 |
| CC(=O)N(C)C1(C(=O)N[C@H](c2nc(-c3ccc(-c4ccc(-c5c[nH]c([C@@H](NC(=O)C6(N(C)C(C)=O)CCC6)C(C)(C)C)n5)cc4)cc3)c[nH]2)C(C)(C)C)CCC1.O=C(O)C(F)(F)F.O=C(O)C(F)(F)F [Compound L-12] | >100 |
| CC(C)(C)[C@H](NC(=O)[C@@]1(C)CCC(F)(F)CO1)c1nc(-c2ccc(-c3cnc(-c4c[nH]c([C@@H](NC(=O)[C@@]5(C)CCC(F)(F)CO5)C(C)(C)C)n4)cn3)cc2)c[nH]1 [Compound N-130] | >100 |
| CC(C)(C)[C@H](NC(=O)C1CCCCC1CO)c1nc(-c2ccc(-c3ccc(-c4c[nH]c([C@@H](NC(=O)C5CCCCC5CO)C(C)(C)C)n4)cc3)cc2)c[nH]1 (single isomer, unassigned) [Compound L-141c] | >100 |
| CC(C)[C@H](NC(=O)c1cncnc1)c1ncc(-c2ccc(-c3ccc(-c4cnc([C@@H](NC(=O)c5cncnc5)C(C)C)[nH]4)cc3)cc2)[nH]1 [Compound S-61] | >10 |
| CC(C)(C)OC(=O)N1CCOCC1C(=O)NC(c1nc(-c2ccc(-c3ccc(-c4c[nH]c(C(NC(=O)C5COCCN5C(=O)OC(C)(C)C)C(C)(C)C)n4)cc3)cc2)c[nH]1)C(C)(C)C [Compound L-61] | >100 |
